Columns and labels:
acutely restrained mice = assay: Acute restraint mouse stress model, plasma corticosterone (ELISA); type: in vivo; details: male C57BL/6J mice, gavage 1, 5, 25 mg/kg, 30 minutes after administration and 3 hours of acute restraint, dose-dependent, FIG. 1
Procedure: Mouse: Male C57BL/6J; 8 weeks old; Weight: 20-25 g; Quantity: 40 pieces
Group 1, acute restraint+placebo group, 10 mice; the mice were divided into 2 cages, 5 mice per cage. On the morning of the day of the experiment, the mice in this group were subjected to acute restraint, during which they were fasted and deprived of water.
Group 2, acute restraint+low-dose of compound NRB181 group (1 mg/kg), 10 mice; the mice were divided into 2 cages, 5 mice per cage. On the morning of the day of the experiment, the mice in this group were subjected to acute restraint, during which they were fasted and deprived of water.
Group 3, acute restraint+moderate-dose of compound NRB181 group (5 mg/kg), 10 mice; the mice were divided into 2 cages, 5 mice per cage. On the morning of the day of the experiment, the mice in this group were subjected to acute restraint, during which they were fasted and deprived of water.
Group 4, acute restraint+high-dose of compound NRB181 group (25 mg/kg), 10 mice; the mice were divided into 2 cages, 5 mice per cage. On the morning of the day of the experiment, the mice in this group were subjected to acute restraint, during which they were fasted and deprived of water.
18.3.1 On the day before the experiment, a placebo was prepared: 1 mL of 100% DMSO and 9 mL of formula x solution was added. […]

[1] = tested on: LPS induced mouse depression model; assay: LPS induced mouse depression model, Forced Swim Test; type: in vivo; details: gavage 2.5 mg/mL at 0.1 mL/10 g twice daily Day 1-4, test 24 hours after injection, FIG. 5
Excerpt: Mice: Male Crl: CD1 (ICR) mice; 10-14 weeks old; Weight: 35-40 g; Quantity: 40 pieces
Group 1, placebo+saline group: 10 mice; divided into 2 cages, 5 mice per cage.
Group 2, placebo+lipopolysaccharide (LPS) group: 10 mice; divided into 2 cages, 5 mice per cage.
Group 3, compound NRB181+saline group: 10 mice; divided into 2 cages, 5 mice per cage.
Group 4, compound NRB181+lipopolysaccharide (LPS) group: 10 mice; divided into 2 cages, 5 mice per cage.
21.3.1 Preparation of placebo before experiment: 0.5% CMC sodium+1% Tween80+saline. In a clean bench, 4 tubes of 40 mL placebo were prepared using pyrogen-free centrifuge tubes and ultrapure water, totaling 160 mL, ensuring the absence of endotoxins (LPS). Sterile and endotoxin free centrifuge tubes were used to divide […] of placebo into 4 mL/tube, for a total of 30 tubes, and stored at 4° C. for future use.
LPS with a purity of >98% was required 3.2 mg of LPS was accurately weighed and dissolved in 40 mL of placebo to prepare a sterile solution of 0.08 mg/mL. After thorough mixing, the solution was divided into sterile and endotoxin-free centrifuge tubes, 4 mL per tube. […]
21.3.15 On the Day 5 of experiment, 24 hours after mice of Group 1 were injected with saline the day before, a Forced Swim Test was conducted on each group of mice starting from Group 1, and the immobility time of each mouse was recorded.

C[C@H](NC(=O)CNC(=O)c1cc(Cl)ccn1)c1c(F)cccc1F [NRB181]
expression level of corticosterone (acutely restrained mice): significantly reduced
despair time (immobility time) in the Forced Swim Test [1]: significantly reduce the despair time
